Read-outs that look alike come from different tables or passages of the source. Marks after values point to notes of the source that are not given here.
Tests used:
[1] = cited from earlier work
[2] = format: in vivo, human; conditions: for AUC0-∞ / CL/F / Cmax / K01 / Vz/F / k10 / t1/2a / t1/2z / tlag / tmax / K10: median (range)
CCA = conditions: bioassay-guided activity; cited from earlier work
[3] = group 1, single 1,000 mg AL, all
[4] = group 1, single 1,000 mg AL, female
[5] = group 1, single 1,000 mg AL, male
[6] = group 2, daily 1,000 mg AL, day 1, all
[7] = group 2, daily 1,000 mg AL, day 1, female
[8] = group 2, daily 1,000 mg AL, day 1, male
[9] = group 2, daily 1,000 mg AL, day 21, all
[10] = group 2, daily 1,000 mg AL, day 21, female
[11] = group 2, daily 1,000 mg AL, day 21, male

In the case of `C/C=C/C#CC#C/C=C/c1ccco1` [atractylodin], the water solubility [1] is given as “low water solubility”, the “AUC0-∞” value [2, 3] is given as 105.07 (65.93–168.90) ng.h/ml and the CL/F [2, 3] is given as 7.28 (4.78–15.62) l/kg/h. For the same molecule, the Cmax [2, 3] was 29.1 (17.1–42.51) ng/ml, the K01 [2, 3] was 0.68 (0.43–1.00) /h and the Vz/F [2, 3] was 10.18 (6.85–19.53) L/kg. For the same molecule, the k10 [2, 3] was 0.71 (0.44–1.71) /h, the t1/2a [2, 3] was 0.97 (0.41–1.58) h and the t1/2z [2, 3] was 0.88 (0.37–1.74) h. The tlag [2, 3] was 0.13 (0.0–0.5) h, the tmax [2, 3] was 1.41 (0.94–2.3) h and the “AUC0-∞” value [2, 4] was 108.19 (65.93–186.59) ng.h/ml. For the same molecule, the CL/F [2, 4] was 8.06 (4.80–15.62) l/kg/h, the Cmax [2, 4] was 31.04 (19.29–49.21) ng/ml and the K01 [2, 4] was 0.75 (0.59–1.48) /h. For the same molecule, the K10 [2, 4] was 0.76 (0.59–1.16) /h, the Vz/F [2, 4] was 11.81 (5.65–19.53) l/kg and the t1/2a [2, 4] was 0.92 (0.47–1.19) h. The t1/2z [2, 4] was 0.92 (0.47–1.19) h, the tlag [2, 4] was 0.0 (0.0–0.25) h and the tmax [2, 4] was 1.33 (0.89–1.70) h. The “AUC0-∞” value [2, 5] was 118.85 (74.25–189.98) ng.h/ml, the CL/F [2, 5] was 6.35 (3.34–10.33) l/kg/h and the Cmax [2, 5] was 31.05 (17.86–51.36) ng/ml. For the same molecule, the K01 [2, 5] was 0.68 (0.44–0.95) /h, the K10 [2, 5] was 0.67 (0.43–0.96) /h and the Vz/F [2, 5] was 8.41 (5.14–18.70) l/kg. For the same molecule, the t1/2a [2, 5] was 1.02 (0.73–1.58) h, the t1/2z [2, 5] was 1.02 (0.73–1.57) h and the tlag [2, 5] was 0.25 (0–0.5) h. For the same molecule, the tmax [2, 5] was 1.48 (1.05–2.29) h, the “AUC0-∞” value [2, 6] was 103.7 (16.5–315.4) ng.h/ml and the CL/F [2, 6] was 8.11 (2.73–40.75) l/kg/h. For the same molecule, the Cmax [2, 6] was 32.11 (4.9–117.8) ng/ml, the K01 [2, 6] was 0.83 (0.43–22.67) /h and the Vz/F [2, 6] was 12.74 (2.687–47.03) L/kg. For the same molecule, the k10 [2, 6] was 0.71 (0.43–1.25) /h, the t1/2a [2, 6] was 0.84 (0.03–1.63) h and the t1/2z [2, 6] was 0.84 (0.03–1.63) h. The tlag [2, 6] was 0 (0–0.5) h, the tmax [2, 6] was 1.18 (0.17–2.34) h and the “AUC0-∞” value [2, 7] was 130.62 (52.04–315.40) ng.h/ml. The CL/F [2, 7] was 6.50 (2.73–14.76) l/kg/h, the Cmax [2, 7] was 42.26 (8.41–117.80) ng/ml and the K01 [2, 7] was 0.96 (0.43–22.67) /h. For the same molecule, the K10 [2, 7] was 0.63 (0.43–1.19) /h, the Vz/F [2, 7] was 10.09 (2.68–33.56) l/kg and the t1/2a [2, 7] was 0.73 (0.03–1.63) h. For the same molecule, the t1/2z [2, 7] was 0.73 (0.03–1.63) h, the tmax [2, 7] was 1.11 (0.17–2.34) h and the “AUC0-∞” value [2, 8] was 91.88 (16.5–109.93) ^b ng.h/ml. The CL/F [2, 8] was 8.75 (5.8–40.75) l/kg/h, the Cmax [2, 8] was 23.77 (4.97–49.75) ^a ng/ml and the K01 [2, 8] was 0.78 (0.57–1.89) /h. For the same molecule, the K10 [2, 8] was 0.72 (0.24–1.25) /h, the Vz/F [2, 8] was 15.52 (6.43–47.03) l/kg and the t1/2a [2, 8] was 0.89 (0.37–1.21) h. The t1/2z [2, 8] was 0.89 (0.37–1.21) h, the tlag [2, 8] was 0.0 (0.0–0.5) h and the tmax [2, 8] was 1.25 (0.81–1.73) h. The “AUC0-∞” value [2, 9] was 123.18 (49.22–419.61) ng.h/ml, the CL/F [2, 9] was 7.10 (1.83–14.67) l/kg/h and the Cmax [2, 9] was 31.84 (9.38–97.64) ng/ml. The K01 [2, 9] was 0.74 (0.10–1.92) /h, the Vz/F [2, 9] was 9.66 (0.47–26.32) L/kg and the k10 [2, 9] was 0.73 (0.11–15.31) /h. The t1/2a [2, 9] was 0.94 (0.36–6.61) h, the t1/2z [2, 9] was 0.94 (0.05–6.49) h and the tlag [2, 9] was 0 (0–0.5) h. The tmax [2, 9] was 1.32 (0.24–9.44) h, the “AUC0-∞” value [2, 10] was 144.4 (69.1–420.3) ng.h/ml and the CL/F [2, 10] was 5.91 (1.83–11.11) l/kg/h. The Cmax [2, 10] was 39.49 (11.40–91.24) ng/ml, the K01 [2, 10] was 0.72 (0.11–1.92) /h and the K10 [2, 10] was 0.74 (0.11–15.31) /h. The Vz/F [2, 10] was 8.18 (0.47–25.06) l/kg, the t1/2a [2, 10] was 0.97 (0.36–6.61) h and the t1/2z [2, 10] was 0.94 (0.05–6.49) h. The tlag [2, 10] was 0 (0–0.5) h, the tmax [2, 10] was 1.36 (0.24–9.45) h and the “AUC0-∞” value [2, 11] was 87.18 (49.22–292.77) ^c ng.h/ml. For the same molecule, the CL/F [2, 11] was 8.16 (2.70–14.67) ^d l/kg/h, the Cmax [2, 11] was 26.03 (9.39–97.64) ng/ml and the K01 [2, 11] was 0.83 (0.52–1.57) /h. For the same molecule, the K10 [2, 11] was 0.71 (0.42–0.99) /h, the Vz/F [2, 11] was 13.32 (3.05–26.32) l/kg and the t1/2a [2, 11] was 0.84 (0.44–1.34) h. For the same molecule, the t1/2z [2, 11] was 0.99 (0.70–1.67) h, the tlag [2, 11] was 0 (0.0–0.0) h and the tmax [2, 11] was 1.24 (1.0–1.94) h. The “Cmax by model-dependent analysis compared with model-independent analysis” value ([2]; in vivo) was 60–70% and the “IC50, anti-CCA activity” value (CCA) was 20 to 25 µg/mL.
